Publication PMC10887214 (Biomedicines, 2024)

Key:
[1] = system: C57BL/6J mice; test: Home cage activity test; assay type: in vivo, mouse; conditions: i.p., OS 2 mg/kg, WIN 0.5 mg/kg, 21 h
Experimental: (§1) Animal housing. Forty-eight Male C57BL/6J mice were purchased from Janvier Labs (Le Genest-Saint-Isle, France) and were time-specifically housed in a 12 h light-dark cycle (lights on at 7 am), with ad libitum water and food in conditioned rooms (22 °C, humidity ~60%).
(§2) Behavior assays. All mice were subjected to a behavioral test battery that consisted of several general performance tasks of locomotor activity, exploratory and anxiety-like behavior, and learning and memory. Mice were divided into four groups: Vehicle, OS (2 mg/kg), WIN55 (0.5 mg/kg), or OS + WIN. Each group consisted of 7–14 mice that received two i.p injections before each test, with a 10 min interval between each injection. Veh + Veh were injected with PBS. Veh + WIN were injected with PBS and WIN55. Veh + OS were injected with PBS and OS. OS + WIN were injected with OS and WIN55. PBS was used as vehicle as it was used for dilution of drugs. Tests were performed in the order described below after 10 min of the last injection, with a 24 h interval between each test.
Cage activity assessment: At P60, animals were moved to the cage activity room for one hour before injections for habituation.. The cage activity assessment consists of placing the mice in a transparent box which is placed between three infrared sensors (two on the cage’s side and one in its front) that count how many times the mice cross the infrared beams. The times of beams crossed in each 30 min were counted over a period of 24 h and used as a locomotor activity measurement. In addition, we also compared the total number of beams crossed during the day and night period. For this test, we used Veh (n = 10), OS (n = 9), WIN (n = 11), OS + WIN (n = 8).

[2] = system: C57BL/6J mice; test: Open Field (OF); assay type: in vivo, mouse; conditions: i.p., WIN 0.5 mg/kg
Experimental: as §1, §2
Open Field (OF): One day after the cage activity test, mice were tested in the OF paradigm. The OF aimed to test the OS, WIN, and OS + WIN effect on animal locomotion and exploratory behavior. Animals were placed in the test room one hour before starting the test. For the OF, animals were placed in a plexiglass box (60 × 60 × 60 cm) divided into three zones (center, periphery, and corners) for 10 min and left free to explore. Total distance and time in zones were counted. Here, more time in the center meant an anxiolytic effect, and a higher distance walking meant an increase in locomotor activity. For this test, we used Veh (n = 8), OS (n = 10), WIN (n = 7), OS + WIN (n = 8).

[3] = system: C57BL/6J mice; test: Morris Water Maze (MWM); assay type: in vivo, mouse; conditions: i.p., WIN 0.5 mg/kg
Experimental: as §1, §2
Morris Water Maze (MWM): MWM [32] was used to assess the effects of OS, WIN, and OS + WIN in memory one day after the EPM test. MWM is a gold standard test to assess learning and memory consisting of 10 days of training and two probe trials in a pool with water at a temperature of 26 °C, with one submersed platform invisible to mice. Each mouse could try to find the platform for 100 s, four times per day, with an inter-trial interval of 15–30 min. In each trial, animals were released randomly from each of the four starting positions. This protocol of training was repeated for ten days (training sessions). The platform was removed on the 6th and 11th days, and the animals were left free to swim for 100 s (probe trials). Right after the first probe trial (day 6), animals were trained again with the platform at the same place. During the training sessions, the mean latency to find the platform for the session was calculated for each animal as the average of the four trials of the day. During the probe trials, the pool was divided into four equal virtual quadrants, and the time spent in the target quadrant (TQ) (i.e., the quadrant where the platform was located during the training sessions) was assessed as a measure of memory retention. For this test, we used Veh (n = 9), OS (n = 8), WIN (n = 8), OS + WIN (n = 14).

[4] = system: chimeric CB1/2 receptor; test: Two-electrode voltage-clamp, chimeric CB1/2-GIRK1/GIRK2-RGS4 coupling system expressed in oocytes; conditions: WIN55,212-2 concentration–response

## Cc1c(C(=O)c2cccc3ccccc23)c2cccc3c2n1[C@H](CN1CCOCC1)CO3 [WIN55,212-2, reference compound]
[1]
  Cage activity (beam crossings) 2 h after the beginning of night phase: did not change the activity
[2]; OS 2 mg/kg, 10 min test
  Total distance walked in open field (locomotion): neither OS nor WIN affected locomotion
[2]
  Time spent in the periphery of open field compared to the control: spent less time in the periphery
[3]; OS 2 mg/kg, days 3, 4, 5, 6 and 8
  Time to find the platform in training sessions vs control: performed significantly worse than the control
[3]
  Time spent in the target quadrant (TQ), first probe trial: ~ 25%
[4]
  Receptor activation: activated by WIN55,212-2 in a concentration-dependent manner
